How the values were obtained:
Type in all cases: cell-based
[1] = system: mouse macrophage RAW264.7 cells; assay: Measurement of cytokine production (ELISA); conditions: 5 hours
Experimental: RAW264.7 cells (1×10^5/ml per well in a 24-well plate) were cultured for 3 days in a DMEM culture medium without DHMBA until they reached subconfluence. After that, the cell culture was continued for another 5 hours in the control group (1% ethanol; DHMBA 0 μM as final concentration) and the DHMBA-treated group (0.1, 1, 10, 100, or 1000 μM) with or without LPS (100 ng/ml) in the cell culture medium. After the culture, the culture medium was collected, and the cytokine concentrations of TNF-α (FIG. 7A), IL-6 (FIG. 7B), […] (FIG. 7C), and PGE2 (FIG. 7D) in the culture medium were measured using an ELISA Kit. Data are presented as the mean±SD from a total of 8 wells in two plates using different cell preparations. *: Significant difference (P<0.001) versus the controls without DHMBA and LPS (white bars). #: Significant difference (P<0.001) versus the controls with LPS but without DHMBA. Statistical analysis was performed using 1-way ANOVA with Tukey-Kramer post-test.
RAW264.7 cells (1×10^5/ml per well) were cultured in a DMEM culture medium containing 10% FBS and 1% P/S using a 24-well plate for 3 days until they reached subconfluence. The cells were then cultured for another 5 hours in the control group (1% ethanol; DHMBA 0 μM as final concentration) and in the DHMBA-treated group (0.1, 1, 10, 100, or 1000 μM) with or without LPS (100 ng/ml). After the culture, the culture media were collected to measure cytokines. Then, the cells were detached from each culture dish to measure the cell number by the method described in “Cell count”. The concentrations of TNF-α, IL-6, IL-⊕, and PGE2 in the culture medium were measured using ELISA kits. For the measurement, kits for TNF-α (cat. no. BM), KHC301) and IL-16 (cat. no. BMS6002) were obtained from ThermoFisher Scientific (Waltham, MA, USA), and kits for IL-6 (cat. no. 583371) and PGE2 (cat. no. 514010) were purchased from Cayman Chemical (Ann Arbor, MI, USA). The amount of each cytokine produced was expressed as pictograms (pg) secreted into the culture medium (ml).

[2] = system: mouse macrophage RAW264.7 cells; assay: Cell proliferation of RAW264.7 cells (cell count); conditions: DHMBA 1, 10, 100 or 1000 μM, 1 to 4 days
Experimental: FIG. 2 is an explanatory diagram describing that the marine factor 3,5-dihydroxy-4-methoxybenzyl alcohol (DHMBA) suppresses the proliferation of mouse macrophage RAW264.7 cells. RAW264.7 cells (1×10^5 cells/ml per well in a 24-well plate) were cultured in a DMEM culture medium containing 10% FBS (fetal bovine serum), 1% P/S (penicillin/streptomycin), and 1% fungizone in a control group (1% ethanol; 0 μM DHMBA as final concentration) and in a DHMBA-treated group (0.1, 1, 10, 100, or 1000 μM) for 1 day (panel A), 2 days (B), 3 days (C), or 4 days (D). After the culture, the number of cells attached to the dish was counted. Data are presented as the mean±SD (standard deviation) from a total of 8 wells in 2 plates using different cell preparations. *: Significant difference (p<0.001) between the control group (gray bars) and the DHMBA-treated group. Statistical analysis was performed using 1-way ANOVA with Tukey-Kramer post-test.
After the culture, to detach the cells from each well, a Ca^2+/Mg^2+ free PBS solution with 0.05% trypsin/EDTA was added to the culture dish (0.1 ml per well) and incubated at 37° C. for 2 min. […]
The number of viable cells was counted under a microscope (Olympus MTV-3) using a hemocytometer (Sigma-Aldrich) and a cell counter (H-102P, Line Seiki Co., Ltd., Tokyo, Japan). […]

[3] = system: mouse macrophage RAW264.7 cells; assay: Cell number after 5 hours incubation with or without LPS; conditions: DHMBA 0.1-1000 μM
Experimental: RAW264.7 cells (1×10^5/ml/well) were cultured in a DMEM culture medium containing 10% FBS, 1% P/S, and 1% fungizone. Cells were treated with a vehicle (1% ethanol; DHMBA 0 μM as final concentration) or DHMBA (0.1, 1, 10, 100, or 1000 μM) and incubated for 5 hours (FIG. 6A).
Cells (1×10^5/ml per well) were cultured for 3 days in a DMEM culture medium containing 10% FBS, 1% P/S, and 1% fungizone in the presence of LPS (100 ng/ml in all cultures). Cells were treated with a vehicle (1% ethanol; DHMBA 0 μM as final concentration) or DHMBA (0.1, 1, 10, 100, or 1000 μM) and incubated for 5 hours (FIG. 6B).
After the culture, the number of cells attached to the dish was counted. Data are presented as the mean±SD from a total of 8 wells of two plates using different cell preparations. […] No significant changes were observed by […] LPS treatment compared to the controls (gray bars). Statistical analysis was performed using 1-way ANOVA with Tukey-Kramer post-test.
RAW264.7 cells (1×10^5/ml per well) were cultured in a DMEM culture medium containing 10% FBS and 1% P/S using a 24-well plate for 3 days until they reached subconfluence. […] The concentrations of TNF-α, IL-6, IL-⊕, and PGE2 in the culture medium were measured using ELISA kits. […] The amount of each cytokine produced was expressed as pictograms (pg) secreted into the culture medium (ml).

[4] = LPS 100 ng/ml, DHMBA 1, 10, 100 or 1000 μM

COc1c(O)cc(CO)cc1O [DHMBA, 3,5-dihydroxy-4-methoxybenzyl alcohol]
LPS-increased production of IL-1β [1, 4]: suppressed
LPS-increased production of IL-6 [1, 4]: suppressed
LPS-increased production of PGE2 [1, 4]: suppressed
LPS-increased production of TNF-α [1, 4]: suppressed
production of IL-6 ([1]; absence of LPS, DHMBA 100 or 1000 μM): suppressed
proliferation of RAW264.7 cells (number of cells attached to the dish) [2]: inhibited
number of RAW264.7 cells ([3]; LPS 100 ng/ml): remained unchanged
number of RAW264.7 cells ([3]; absence of LPS): remained unchanged
